From US9475805B2, “Tricyclic compound” (Kyowa Hakko Kirin Co., Ltd., priority 2008, dated 2016)

Target: T1, PPAR γ (Homo sapiens, UniProt P37231)
T1 construct: expressed in transfected cells; host or cells: HEK293EBNA
T1 sequence (P37231 174-475 isoform P37231-2): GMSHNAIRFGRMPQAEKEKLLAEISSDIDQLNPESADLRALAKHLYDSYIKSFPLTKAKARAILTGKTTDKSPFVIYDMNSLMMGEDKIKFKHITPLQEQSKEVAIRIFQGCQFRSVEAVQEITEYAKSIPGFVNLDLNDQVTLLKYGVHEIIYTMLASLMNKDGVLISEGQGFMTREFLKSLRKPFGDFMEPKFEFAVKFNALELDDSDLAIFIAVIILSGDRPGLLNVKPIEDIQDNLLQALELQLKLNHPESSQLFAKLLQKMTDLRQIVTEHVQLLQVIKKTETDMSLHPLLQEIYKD
Experiment: PPAR γ activation action based on transactivation assay of PPAR γ by transient gene transfer (GAL4-PPAR γ chimeric receptor, luciferase reporter, HEK293EBNA cells)
Type: cell-based
Settings: concentration showing 50% of the compound's own efficacy (maximum activity rate relative to pioglitazone 10 μmol/L = 100%), 24 hr
Method: The agonist activity of compound (I) to PPAR γ was determined by a transactivation assay method using a chimeric nuclear receptor of a DNA binding region of a yeast transcription factor GAL4 and a PPAR γ ligand binding region. Specifically, the PPAR γ agonist activity of compound (I) was evaluated by the following method based on the method of Lehmann et al. (J Biol Chem., 1995, vol. 270, page 12953).
HEK293EBNA cells cultured in Dulbecco's Modified Eagle medium (Invitrogen) containing 10 v/v % fetal calf serum (Invitrogen) were used. 30 mL of the above-mentioned cells (density: 1×10^5 cells/mL) were inoculated in a […] (Iwaki Glass), and cultured overnight. Using SuperFect Transfection Reagent (QIAGEN), a plasmid expressing a GAL4-PPAR γ chimeric nuclear receptor fusing 174-475 amino acids, which are human PPAR γ ligand binding region, and 1-147 amino acids, which are GAL4 DNA binding region, and a reporter plasmid expressing a GAL4 responsive luciferase were transiently introduced into the cells at a proportion of 4:1. After 5 hr from transfection, the cells were detached from the culture dish, and the detached cells (density: 2×10^4 cells/mL) were inoculated by 100 μL in each well of a 96 well white plate (SUMITOMO BAKELITE), and cultured overnight. The medium was removed, compound (I) diluted in various concentrations with serum-free Dulbecco's Modified Eagle medium was added by 100 μL, and the mixture was reacted under a 5% carbon dioxide gas stream (5% CO2) at 37° C. for 24 hr. On the other hand, as a positive control, 10 μmol/L of pioglitazone (100 μL) was added, and the mixture was reacted under a 5% carbon dioxide gas stream (5% CO2) at 37° C. for 24 hr. As a substrate of luciferase, 100 μL of Steady-Glo (Promega) was added to each well and the mixture was thoroughly stirred. Immediately thereafter, the chemical luminescence due to luciferase was measured using TopCount NTX (Packard).
The agonist activity (activity rate (%)) of compound (I) to PPAR γ was calculated according to the following formula, as a relative activity when the agonist activity on addition of pioglitazone (10 μmol/L) was 100%.

EC50 [µM]	SMILES
0.156	CCCc1nc2c(C)cc(-c3cccs3)cc2n1Cc1ccc2c(c1)CCc1ccccc1/C2=C\c1nnn[nH]1 [Compound 67, (E)-2-[4-Methyl-2-propyl-6-(2-thienyl)benzimidazol-1-yl]methyl-5-(1H-tetrazol-5-yl)methylene-10,11-dihydro-5H-dibenzo[a,d]cycloheptene]
0.156	CCCc1nc2c(C)cc(-c3nnco3)cc2n1Cc1ccc2c(c1)CCc1ccccc1/C2=C\c1nnn[nH]1 [Compound 70, (E)-2-[4-Methyl-6-(1,3,4-oxadiazol-2-yl)-2-propylbenzimidazol-1-yl]methyl-5-(1H-tetrazol-5-yl)methylene-10,11-dihydro-5H-dibenzo[a,d]cycloheptene]
0.328	CCc1nc2c(C)cc(C)nc2n1Cc1ccc2c(c1)OCc1ccccc1/C2=C(\C)c1noc(=O)[nH]1 [Compound 76, (Z)-3-(2-Ethyl-5,7-dimethyl-3H-imidazo[4,5-b]pyridin-3-yl)methyl-11-[1-(5-oxo-4,5-dihydro-1,2,4-oxadiazol-3-yl)ethylidene]-6,11-dihydrodibenzo[b,e]oxepine]
0.027	CCCc1nc2c(C)cccc2n1C(C)c1ccc2c(c1)CCc1ccccc1/C2=C\c1noc(=O)[nH]1 (stereo not drawn) [Compound 85, (E)-2-[1-(2-Propyl-4-methylbenzimidazol-1-yl)ethyl]-5-(5-oxo-4,5-dihydro-1,2,4-oxadiazol-3-yl)methylene-10,11-dihydro-5H-dibenzo[a,d]cycloheptene]
0.06	CCc1nc2c(Cl)cccc2n1C(C)c1ccc2c(c1)CCc1ccccc1/C2=C\c1noc(=O)[nH]1 (stereo not drawn) [Compound 87, (E)-2-[1-(4-Chloro-2-ethylbenzimidazol-1-yl)ethyl]-5-(5-oxo-4,5-dihydro-1,2,4-oxadiazol-3-yl)methylene-10,11-dihydro-5H-dibenzo[a,d]cycloheptene]
0.031	CCCc1nc2c(C)cc(-c3ncco3)cc2n1Cc1ccc2c(c1)CCc1ccccc1/C2=C\C(=O)N(C)CC(=O)O [Compound 95, (E)-2-[N-Methyl 2-({2-[4-methyl-6-(1,3-oxazol-2-yl)-2-propylbenzimidazol-1-yl]methyl-10,11-dihydro-5H-dibenzo[a,d]cyclohepten-5-ylidene}acetamido)]acetic acid]
0.013	CCCc1nc2c(C(C)(C)O)cccc2n1Cc1ccc2c(c1)COc1ccccc1/C2=C(\C)c1noc(=O)[nH]1 [Compound 96, (E)-8-[(4-Hydroxypropan-2-yl)-2-propylbenzimidazol-1-yl]methyl-11-[1-(5-oxo-4,5-dihydro-1,2,4-oxadiazol-3-yl)ethylidene]-6,11-dihydrodibenzo[b,e]oxepine]

The remaining lines, values behind:

SMILES	EC50 [µM]
CCCc1nc2ccccc2n1Cc1ccc2c(c1)CCc1ccccc1/C2=C\c1noc(=O)[nH]1 [Compound 5, (E)-2-(2-Propylbenzimidazol-1-yl)methyl-5-(5-oxo-4,5-dihydro-1,2,4-oxadiazol-3-yl)methylene-10,11-dihydro-5H-dibenzo[a,d]cycloheptene]	0.399
CCCc1nc2ccccc2n1Cc1ccc2c(c1)CCc1ccccc1/C2=C\c1n[nH]c(=O)o1 [Compound 7, (E)-2-(2-Propylbenzimidazol-1-yl)methyl-5-(5-oxo-4,5-dihydro-1,3,4-oxadiazol-2-yl)methylene-10,11-dihydro-5H-dibenzo[a,d]cycloheptene]	0.791
CCc1nc2c(C)cc(C)nc2n1Cc1ccc2c(c1)CCc1ccccc1/C2=C\c1noc(=S)[nH]1 [Compound 8, (E)-2-(2-Ethyl-5,7-dimethyl-3H-imidazo[4,5-b]pyridin-3-yl)methyl-5-(5-thioxo-4,5-dihydro-1,2,4-oxadiazol-3-yl)methylene-10,11-dihydro-5H-dibenzo[a,d]cycloheptene]	0.175
CCCc1nc2c(C)cccc2n1Cc1ccc2c(c1)CCc1ccccc1/C2=C(\C)c1nnn[nH]1 [Compound 17, (Z)-2-(4-Methyl-2-propylbenzimidazol-1-yl)methyl-5-[1-(1H-tetrazol-5-yl)ethylidene]-10,11-dihydro-5H-dibenzo[a,d]cycloheptene]	0.03
C/C(=C1\c2ccccc2CCc2cc(Cn3c(C4CC4)nc4c(Cl)cccc43)ccc21)c1noc(=O)[nH]1 [Compound 19, (Z)-2-(4-Chloro-2-cyclopropylbenzimidazol-1-yl)methyl-5-[1-(5-oxo-4,5-dihydro-1,2,4-oxadiazol-3-yl)ethylidene]-10,11-dihydro-5H-dibenzo[a,d]cycloheptene]	0.0064
CCc1nc(-c2ccccc2)cn1Cc1ccc2c(c1)COc1ccccc1/C2=C(\C)c1noc(=O)[nH]1 [Compound 21, (E)-8-(2-Ethyl-4-phenylimidazol-1-yl)methyl-11-[1-(5-oxo-4,5-dihydro-1,2,4-oxadiazol-3-yl)ethylidene]-6,11-dihydrodibenzo[b,e]oxepine]	0.04
CCc1nc2ccccc2n1Cc1ccc2c(c1)COc1ccccc1/C2=C(\C)c1noc(=O)[nH]1 [Compound 26, (E)-8-(2-Ethylbenzimidazol-1-yl)methyl-11-[1-(5-oxo-4,5-dihydro-1,2,4-oxadiazol-3-yl)ethylidene]-6,11-dihydrodibenzo[b,e]oxepine]	0.017
CCCc1nc2ccccc2n1Cc1ccc2c(c1)COc1ccccc1/C2=C(\C)c1noc(=O)[nH]1 [Compound 27, (E)-8-(2-Propylbenzimidazol-1-yl)methyl-11-[1-(5-oxo-4,5-dihydro-1,2,4-oxadiazol-3-yl)ethylidene]-6,11-dihydrodibenzo[b,e]oxepine]	0.0026
COCc1nc2ccccc2n1Cc1ccc2c(c1)COc1ccccc1/C2=C(\C)c1noc(=O)[nH]1 [Compound 30, (E)-8-(2-Methoxymethylbenzimidazol-1-yl)methyl-11-[1-(5-oxo-4,5-dihydro-1,2,4-oxadiazol-3-yl)ethylidene]-6,11-dihydrodibenzo[b,e]oxepine]	0.0098
C/C(=C1/c2ccc(Cn3c(Cc4ccccc4)nc4ccccc43)cc2COc2ccccc21)c1noc(=O)[nH]1 [Compound 33, (E)-8-(2-Benzylbenzimidazol-1-yl)methyl-11-[1-(5-oxo-4,5-dihydro-1,2,4-oxadiazol-3-yl)ethylidene]-6,11-dihydrodibenzo[b,e]oxepine]	0.026
CCCc1nc2c(C)cccc2n1Cc1ccc2c(c1)COc1ccccc1/C2=C(\C)c1noc(=O)[nH]1 [Compound 35, (E)-8-(2-Propyl-4-methylbenzimidazol-1-yl)methyl-11-[1-(5-oxo-4,5-dihydro-1,2,4-oxadiazol-3-yl)ethylidene]-6,11-dihydrodibenzo[b,e]oxepine]	0.0024
CCc1nc2c(C)cc(-c3ccccc3)cc2n1Cc1ccc2c(c1)CCc1ccccc1/C2=C\C#N [Compound 50, (E)-[2-(2-Ethyl-4-methyl-6-phenylbenzimidazol-1-yl)methyl-10,11-dihydro-5H-dibenzo[a,d]cyclohepten-5-ylidene]acetonitrile]	0.352
Cc1cc(-c2ccccc2)cc2c1nc(C)n2Cc1ccc2c(c1)CCc1ccccc1/C2=C\c1nnn[nH]1 [Compound 54, (E)-2-(2,4-Methyl-6-phenylbenzimidazol-1-yl)methyl-5-(1H-tetrazol-5-yl)methylene-10,11-dihydro-5H-dibenzo[a,d]cycloheptene]	0.054
Cc1cc(-c2ccccc2)cc2c1nc(C)n2Cc1ccc2c(c1)CCc1ccccc1/C2=C\C(=O)O [Compound 55, (E)-[2-(2,4-Dimethyl-6-phenylbenzimidazol-1-yl)methyl-10,11-dihydro-5H-dibenzo[a,d]cyclohepten-5-ylidene]acetic acid]	0.039
